For this assay, the target named is FABP4 (Homo sapiens, UniProt P15090). The assay is described as follows: TdF (Temperature Dependence Fluorescence) assay, thermal shift, FABP4. The format is binding. The source says: TdF (Temperature Dependence Fluorescence) Assay for FABP3 and FABP4
The TdF assay was mainly conducted in the 96-well based CHROMO-4 real time fluorescence plate reader (BioRad). The Sypro Orange (Sigma-Aldrich), environmentally sensitive fluorescence dye, was used to monitor the protein folding-unfolding transition. Protein-ligand binding was gauged by the change (or shift) in the unfolding transition temperature (ΔTm) acquired at protein alone with respect to protein in the presence of ligand of interest.
The compound of interest was first prepared in DMSO stock (typical concentration: 10 mM). […] Final percentage of DMSO resided in the sample was 2%. The sample plate was heated from 30° C. to 90° C. with thermal ramping rate of 1° C./min. The fluorescence signals were acquired with excitation and emission wavelengths centered at 490 and 560 nm respectively. The instrument thermal stability was ±0.2° C.
Theoretical basis for TdF-based ligand binding affinity constant
In brief, the binding constant of the ligand at the Tm is expressed as below:
[formula] where To is the midpoint of unfolding for unliganded protein and Tm is the midpoint of unfolding in presence of ligand. [LTm] is free ligand at Tm. The ΔHu and ΔCpu are the enthalpy of unfolding and heat capacity change of unfolding for the protein respectively.
The nonlinear regression fitting in general readily reaches convergence by properly constraining the initial values for the fitting parameters (e.g. the initial “guess” for the ΔHu was constrained to 120 kcal/mol; initial Yn and mn were set to 1 and zero to best represent the melting curve along the low temperature region; negative slope of −0.5 was initially chosen for mu; initial Tm was also constrained to 50° C.).
[formula] (see Brandts et al and Mayhood et al, shown above) where ΔHL (T) is the van't Hoff enthalpy of ligand binding at temperature T and ΔCpL is the heat capacity upon ligand binding. For simplicity, the ΔCpL and ΔHL (T) were set to zero and −7 kcal/mol respectively. […] TdCD (Temperature-dependent Circular Dichroism) Assay for FABP3/4/5

As a reminder, the Kd is a measure of binding affinity in units of concentration.

Chain of FABP4 (P15090 whole entry, species assumed): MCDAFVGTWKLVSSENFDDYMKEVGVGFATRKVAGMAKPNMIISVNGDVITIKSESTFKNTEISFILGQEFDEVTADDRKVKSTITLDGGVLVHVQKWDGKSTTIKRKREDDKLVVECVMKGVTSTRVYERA

For `CCc1cccc(OCc2cc(=O)n3nc(-c4ccccc4)nc3[nH]2)c1` [1-60], the “FABP4 TdF Kd” value is listed as “B (0.5 ≦ B < 0.001 μM)”. On the same count and under the same terms, then `O=c1c(Br)c(COc2cccc(Cl)c2C2CC2)[nH]c2nc(-c3ccccc3)nn12` [23-1], with “B (0.5 ≦ B < 0.001 μM)”.

For `O=c1cc(COc2cccc(C(F)(F)F)c2)[nH]c2nc(C(F)(F)F)nn12` [5-3], the dissociation constant Kd was above 0.5 µM. With `COc1ccccc1C1(CNC(=O)c2c(Cl)cccc2OCc2cc(=O)n3nc(-c4ccccc4)nc3[nH]2)CC1` [47-48], the “FABP4 TdF Kd” value is “B (0.5 ≦ B < 0.001 μM)”. The same measure, in the same setting: then `Cc1ccc(OCc2cc(=O)n3nc(-c4ccccc4)nc3[nH]2)cc1C` [1-63], with “B (0.5 ≦ B < 0.001 μM)”. Consider `CC1(NC(=O)C2(OCc3cc(=O)n4nc(-c5ccccc5)nc4[nH]3)CCCCC2)COC1` [48-43], for which the equilibrium dissociation constant (Kd) was above 0.5 µM.

Regarding `CN(C)c1cccc(OCc2cc(=O)n3nc(-c4ccccc4)nc3[nH]2)c1` [1-28], the dissociation constant Kd was above 0.5 µM. Regarding `CC1(C)CC(OCc2cc(=O)n3nc(-c4ccccc4)nc3[nH]2)CC(C)(C)C1` [1-97], the “FABP4 TdF Kd” value is reported as “B (0.5 ≦ B < 0.001 μM)”. Same read-out and setting: then `O=c1cc(COc2cccc(F)c2)[nH]c2nc(-c3ccccc3)nn12` [1-93], with “B (0.5 ≦ B < 0.001 μM)”. Regarding `O=c1cc(COc2cccc(Cl)c2Cl)[nH]c2nc(-c3ccccc3)nn12` [1-67], the “FABP4 TdF Kd” value is listed as “B (0.5 ≦ B < 0.001 μM)”. `O=C(Nc1c(Cl)cccc1OCc1cc(=O)n2nc(-c3ccccc3)nc2[nH]1)C1CC1` [49-3]: the “FABP4 TdF Kd” value was “B (0.5 ≦ B < 0.001 μM)”. Regarding `CCc1ccc(NCc2cc(=O)n3nc(C4CC4)nc3[nH]2)cc1` [5-9], the Kd was above 0.5 µM.

Regarding `COCC1(CNC(=O)c2c(Cl)cccc2OCc2cc(=O)n3nc(-c4ccccc4)nc3[nH]2)CC1` [47-19, 2-chloro-N-((1-(methoxymethyl)cyclopropyl)methyl)-6-((7-oxo-2-phenyl-4,7-dihydro-[1,2,4]triazolo[1,5-a]pyrimidin-5-yl)methoxy)benzamide], the “FABP4 TdF Kd” value is recorded as “B (0.5 ≦ B < 0.001 μM)”. On to `O=c1cc(COc2ccc(Br)cc2)[nH]c2nc(-c3ccccc3)nn12` [1-61], for which the Kd was above 0.5 µM. On the same count and under the same terms, then `CN1CCC(OCc2cc(=O)n3nc(-c4ccccc4)nc3[nH]2)CC1` [1-45], with above 0.5 µM; and `CC(=O)N1CCC(OCc2cc(=O)n3nc(-c4ccccc4)nc3[nH]2)CC1` [1-49], with above 0.5 µM. Consider `O=c1cc(COc2ccccc2Br)[nH]c2nc(-c3ccccc3)nn12` [1-73], for which the “FABP4 TdF Kd” value is listed as “B (0.5 ≦ B < 0.001 μM)”. The same measure, in the same setting: then `O=C(NCC1(CO)CC1)c1ccccc1OCc1[nH]c2nc(-c3ccccc3)nn2c(=O)c1Cl` [24-16], with “B (0.5 ≦ B < 0.001 μM)”; and `O=c1cc(CN2CCCC2Cc2c(F)cccc2Cl)[nH]c2nc(-c3ccccc3)nn12` (centres unmarked) [1-131], with “B (0.5 ≦ B < 0.001 μM)”; and `COC(=O)C1(NC(=O)C2(OCc3cc(=O)n4nc(-c5ccccc5)nc4[nH]3)CCCCC2)CCCCC1` [48-53], with “B (0.5 ≦ B < 0.001 μM)”. For the compound `NCc1cccc(OCc2cc(=O)n3nc(-c4ccccc4)nc3[nH]2)c1C1CC1` [46-3], the Kd was above 0.5 µM. Still for that read-out and setting: then `CN1CCN(CCNCc2c(Cl)cccc2OCc2cc(=O)n3nc(-c4ccccc4)nc3[nH]2)CC1` [33-3], with above 0.5 µM.

Take `Cc1cc(NC(=O)c2c(Cl)cccc2OCc2cc(=O)n3nc(-c4ccccc4)nc3[nH]2)no1` [47-8, 2-chloro-N-(5-methylisoxazol-3-yl)-6-((7-oxo-2-phenyl-4,7-dihydro-[1,2,4]triazolo[1,5-a]pyrimidin-5-yl)methoxy)benzamide]: the “FABP4 TdF Kd” value is given as “B (0.5 ≦ B < 0.001 μM)”. Still for that read-out and setting: then `O=C(NCC1(CO)CCC1)C1(OCc2[nH]c3nc(-c4ccccc4)nn3c(=O)c2Cl)CCCCC1` [50-6], with “B (0.5 ≦ B < 0.001 μM)”. Same read-out and setting: the result for `Cc1c(Cl)cccc1OCc1cc(=O)n2nc(-c3cccs3)nc2[nH]1` [8-13] reads “B (0.5 ≦ B < 0.001 μM)”. For `O=C(NC1CC1)C1(OCc2cc(=O)n3nc(-c4ccccc4)nc3[nH]2)CCCCC1` [48-18], the Kd is above 0.5 µM.

Source of the values: US8815875B2 (Merck Sharp & Dohme Corp., priority 2008, dated 2014).
